Source: patent publication US20230310445A1, “LOX ENZYME INHIBITING METHODS AND COMPOSITIONS” (ANOVIA BIOSCIENCES, INC., priority 2020, published 2023)

Experiments:
[1] = molecular target: T1, Recombinant human LOXL3 (lysyl oxidase like 3) (Homo sapiens, UniProt P58215); assay: LOXL3 inhibition assay (fluorometric, cadaverine/Amplex Red/HRP); type: biochemical; conditions: IC50 class; recombinant human LOXL3, cadaverine substrate; read-out: Activity Range LOXL3
T1 construct: purchased R&D systems
T1 sequence (P58215 26-753): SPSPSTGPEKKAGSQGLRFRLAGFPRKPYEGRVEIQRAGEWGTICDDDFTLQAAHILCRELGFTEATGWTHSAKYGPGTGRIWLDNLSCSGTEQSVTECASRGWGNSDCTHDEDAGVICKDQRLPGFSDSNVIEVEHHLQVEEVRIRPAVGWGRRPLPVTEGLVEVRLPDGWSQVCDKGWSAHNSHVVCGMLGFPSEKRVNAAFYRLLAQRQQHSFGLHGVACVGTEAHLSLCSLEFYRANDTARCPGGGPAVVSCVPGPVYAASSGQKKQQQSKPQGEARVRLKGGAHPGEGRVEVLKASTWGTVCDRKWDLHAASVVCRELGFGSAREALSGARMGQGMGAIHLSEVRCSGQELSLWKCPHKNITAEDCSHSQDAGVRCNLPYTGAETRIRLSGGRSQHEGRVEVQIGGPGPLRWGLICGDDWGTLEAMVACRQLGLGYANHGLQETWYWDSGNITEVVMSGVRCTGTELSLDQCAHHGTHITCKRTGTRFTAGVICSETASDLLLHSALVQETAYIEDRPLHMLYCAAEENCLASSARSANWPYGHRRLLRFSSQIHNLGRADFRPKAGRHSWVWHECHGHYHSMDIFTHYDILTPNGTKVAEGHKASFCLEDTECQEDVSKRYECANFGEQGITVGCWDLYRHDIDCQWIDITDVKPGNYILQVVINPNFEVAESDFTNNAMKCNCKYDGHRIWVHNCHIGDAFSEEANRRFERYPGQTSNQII
Experimental: The ability of compounds to inhibit one or more of the lysyl oxidases LOXL2 and/or LOXL3 was determined using a fluorometric assay. This assay measures the activity of lysyl oxidases by coupling the reaction with horseradish peroxidase-catalyzed […]. The activity assay protocol uses cadaverine as substrate that releases hydrogen peroxide upon transformation by the specific LOX family enzyme present in the sample. Hydrogen peroxide is in turn detected using a red fluorescence substrate for HRP-coupled reactions (Amplex Red Enzyme Assays, Thermo Scientific Fisher). This leads to increase in fluorescence that can be easily detected at Ex/Em=540/590 nm in a fluorescence microplate reader.
Enzymes: Recombinant human LOXL2 (lysyl oxidase like 2) and recombinant human LOXL3 (lysyl oxidase like 3) were purchased from R&D systems and assays were performed in 1.2 M urea, 50 mM sodium borate buffer pH 8.0, and 10 mM CaCl.
Reaction: Final concentration in the LOXL2 and LOXL3 assays were as following and performed in a total volume of […]:
Experimental procedure: 5 μl of freshly prepared reaction buffer were delivered to reaction wells. Compounds were resuspended in 100% DMSO at 10 mM and delivered into buffer using acoustic technology (Echo550; nanoliter range). A 3× solution of LOXL2 or LOXL3 in reaction buffer was prepared (“enzyme solution”) and 5 μL of enzyme solution was added into the reaction wells. Buffer only was added to column 1 for no protein control. Reactions were incubated for 30 minutes at 37° C. A 3×mixture of cadaverine, Amplex Red, and HRP (“Substrate/Detection Mix) was prepared and subsequently 5 μL of the mixture added to each reaction well. Progress of reactions was monitored for 60 minutes at 37° C. using Clariostar plate reader (ex 530-12, ems 600-40). For all activity assays, pan-LOX inhibitor CCT365623 (Tang et al, 2017) and LOXL2/LOXL3 inhibitor PAT-1251 (PharmaKea) were included as standards.
Data analysis: Slope of the linear portion of the progress curve was calculated using Clariostar software. Typical analysis interval was between 8-30 min, but varied between experiments. The background subtracted signals (No protein wells are considered as background) were converted to % activity relative to DMSO controls. Data was analyzed using GraphPad Prism 4 with “sigmoidal dose-response (variable slope)”; 4 parameters with Hill Slope. Constraints: Bottom=Constant equal to 0. Top=Must be less than 120.

[2] = molecular target: T2, Recombinant human LOXL2 (lysyl oxidase like 2) (Homo sapiens, UniProt Q9Y4K0); assay: LOXL2 inhibition assay (fluorometric, cadaverine/Amplex Red/HRP); type: biochemical; conditions: IC50 class; recombinant human LOXL2, cadaverine substrate; read-out: Activity Range LOXL2
T2 construct: purchased R&D systems
T2 sequence (Q9Y4K0 26-774): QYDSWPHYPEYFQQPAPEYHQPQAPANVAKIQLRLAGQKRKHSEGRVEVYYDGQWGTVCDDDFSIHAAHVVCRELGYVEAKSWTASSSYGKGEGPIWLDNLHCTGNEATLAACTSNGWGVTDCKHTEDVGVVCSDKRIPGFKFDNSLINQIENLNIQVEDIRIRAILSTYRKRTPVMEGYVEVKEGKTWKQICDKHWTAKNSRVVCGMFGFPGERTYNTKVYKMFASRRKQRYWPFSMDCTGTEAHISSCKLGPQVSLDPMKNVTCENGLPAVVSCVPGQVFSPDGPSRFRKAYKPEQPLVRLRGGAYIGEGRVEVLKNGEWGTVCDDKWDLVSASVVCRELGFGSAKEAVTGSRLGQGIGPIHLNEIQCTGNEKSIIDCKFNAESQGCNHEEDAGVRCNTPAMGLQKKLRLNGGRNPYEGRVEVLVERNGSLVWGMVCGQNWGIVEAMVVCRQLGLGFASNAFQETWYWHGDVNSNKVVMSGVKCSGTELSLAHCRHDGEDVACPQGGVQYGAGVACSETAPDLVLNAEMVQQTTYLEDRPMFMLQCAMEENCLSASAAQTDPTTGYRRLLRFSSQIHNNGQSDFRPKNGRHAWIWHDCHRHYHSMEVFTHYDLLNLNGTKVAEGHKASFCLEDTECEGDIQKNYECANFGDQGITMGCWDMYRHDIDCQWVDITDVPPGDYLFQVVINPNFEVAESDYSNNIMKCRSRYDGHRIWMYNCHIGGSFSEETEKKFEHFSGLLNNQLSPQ
In short: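 Both enzymes assayed in 1.2 M urea, 50 mM sodium borate pH 8.0, 10 mM CaCl, with 30 min compound–enzyme preincubation at 37° C before cadaverine/Amplex Red/HRP addition. Fluorescence followed 60 min at 37° C; linear-slope rates, background-subtracted, as % of DMSO control, fitted by 4-parameter variable-slope curve (bottom fixed at 0).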

IC50 [1] [nM]	IC50 [2] [nM]	Structure (SMILES)
≤ 500	≤ 500	NCc1ccnc(S(=O)(=O)N2C[C@@H](C(=O)N3CCS(=O)(=O)CC3)C[C@@H](C3CCCCC3)C2)c1.O=C(O)C(F)(F)F (racemic) [Example 146, cis-(1-((4-(Aminomethyl)pyridin-2-yl)sulfonyl)-5-cyclohexylpiperidin-3-yl)(1,1-dioxidothiomorpholino)methanone 2,2,2-trifluoroacetate]
≤ 500	≤ 500	NCc1ccnc(S(=O)(=O)N2C[C@@H](C(=O)N3CCOCC3)C[C@@H](c3ccccc3)C2)c1 (relative stereo) [Example 133, cis-(1-((4-(Aminomethyl)pyridin-2-yl)sulfonyl)-5-phenylpiperidin-3-yl)(morpholino)methanone 2,2,2-trifluoroacetate]
1000 to 30000	≤ 500	CN(C)C(=O)[C@H]1C[C@@H](C2CCCCC2)CN(S(=O)(=O)c2cccc(CN)c2)C1 (relative stereo) [Example 138, cis-1-((3-(Aminomethyl)phenyl)sulfonyl)-5-cyclohexyl-N,N-dimethylpiperidine-3-carboxamide 2,2,2-trifluoroacetate]
500 to 1000	≤ 500	NCc1ccnc(S(=O)(=O)N2C[C@@H](C(=O)N3CCOCC3)C[C@@H](c3ccccc3)C2)c1 [Example 133A, ((3S,5S)-1-((4-(aminomethyl)pyridin-2-yl)sulfonyl)-5-phenylpiperidin-3-yl)(morpholino)methanone 2,2,2-trifluoroacetate]
≤ 500	≤ 500	NCc1ccnc(S(=O)(=O)N2C[C@H](C(=O)N3CCOCC3)C[C@H](c3ccccc3)C2)c1 [Example 133B, ((3R,5R)-1-((4-(aminomethyl)pyridin-2-yl)sulfonyl)-5-phenylpiperidin-3-yl)(morpholino)methanone 2,2,2-trifluoroacetate]
